Assay results: patent US20250248993A1, “CAMPTOTHECIN DERIVATIVES THAT BIND TO DDX5 PROTEIN AND PRODRUGS THEREOF” (priority 2022, published 2025)
Read-outs that look alike come from different tables or passages of the source.

Legend:
[1] = tested on: survivin, cIAP2, Mcl-1, and XIAP; assay: Western blot, expression inhibition of anti-apoptotic proteins in FaDu cell line; format: cell-based; conditions: FaDu, 0, 10, 100 nM, 24 hours
[2] = in vivo; conditions: NOD SCID, mouse, 1 mg/kg, Plasma Concentration
[3] = mouse, in vivo
[4] = target: DDX5 (Homo sapiens, UniProt P17844); assay: Western blot, DDX5 degradation in FaDu and A549 cell lines; format: cell-based; parameters: endogenous in cells; host or cells: FaDu, A549; conditions: FaDu and A549, 0, 10, 100 nM
[5] = Lactone to carboxylate form conversion at pH 7.4; format: physicochemical; conditions: pH 7.4, 37° C.
Procedure: Subsequently, it was centrifuged under conditions of 4° C., 2 minutes, and 13000 RCF, and a supernatant was used as a sample.
The column used was a Cortecs C18 2.7 μm, 4.6×50 mm column, and analysis was conducted under the following conditions: 1) 20 min: 5% B, 2) sample injection, 3) 2 min: 5% B, 4) 10 min: 5% B→50% B, and 5) 1 min: 50% B.
To measure changes over time, a sample chamber was maintained at 37° C. and a sample was set to be injected at each measurement time. The measurement time was set to 0, 20, 40, 60, 90, 120, 180, 240, 300, 360, 480, 600, and 720 minutes.
The content of each of lactone and carboxylate was calculated from the peak area thereof. Since the absorption coefficients of lactone and carboxylate are different, the lactone area was obtained by multiplying the carboxylate area by the equation below.

[6] = tested on: various cancer lines; conditions: cited from earlier work
[7] = tested on: FaDu cell line; assay: Cell viability assay (CellTiter-Glo), FaDu cell line; format: cell-based; conditions: FaDu not expressing ABCG2, 3 days
Procedure: After 24 hours, the cells were treated with 100 μL of each drug at nine different concentrations (⅕ serial dilutions from 1000 nM). […] Here, a control (drug concentration: 0) that was not treated with a drug was also prepared. The cells were cultured (37° C., 5% CO2) for 3 or 6 days. 100 μL of the CellTiter-Glo reagent (using the CellTiter-Glo® Luminescent Cell Viability Assay kit (Promega, G7571)) was added to each well and pipetted. After incubating at room temperature (RT) for 10 minutes, luminescence was measured.

[8] = dose more than 10 times higher than a clinically applicable dose; cited from earlier work

Sequence of DDX5 (P17844 whole entry): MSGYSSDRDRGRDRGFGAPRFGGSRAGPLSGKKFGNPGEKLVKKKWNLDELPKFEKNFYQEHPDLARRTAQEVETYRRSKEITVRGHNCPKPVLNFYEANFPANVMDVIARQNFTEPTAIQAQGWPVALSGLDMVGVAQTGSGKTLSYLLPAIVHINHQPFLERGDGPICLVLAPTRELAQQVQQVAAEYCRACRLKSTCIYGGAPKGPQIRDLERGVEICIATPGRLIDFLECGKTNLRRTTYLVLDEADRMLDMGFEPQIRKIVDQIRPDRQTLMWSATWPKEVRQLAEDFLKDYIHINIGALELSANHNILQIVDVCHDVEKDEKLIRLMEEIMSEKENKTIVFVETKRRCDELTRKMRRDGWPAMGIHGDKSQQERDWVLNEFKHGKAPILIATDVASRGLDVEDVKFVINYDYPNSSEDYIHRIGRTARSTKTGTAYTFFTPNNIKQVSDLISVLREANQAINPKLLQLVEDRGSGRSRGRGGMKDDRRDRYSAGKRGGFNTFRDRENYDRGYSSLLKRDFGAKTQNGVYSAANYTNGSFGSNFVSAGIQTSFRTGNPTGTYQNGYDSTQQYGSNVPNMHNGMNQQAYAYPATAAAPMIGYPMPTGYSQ

CC[C@@]1(O)C(=O)OCc2c1cc1n(c2=O)Cc2c-1nc1cc3c(c4c1c2[C@@H](NC(=O)[C@@H](C)O)CC4)OCO3 [PBX-7016]
expression of anti-apoptotic proteins (survivin, cIAP2, Mcl-1, XIAP) [1]: decreased as the concentration increased | concentration at 0.167 h ([2]; ip, Mean): 0.164 µg/mL | concentration at 1 h ([2]; ip, Mean): 0.0161 µg/mL | concentration at 0.167 h ([2]; ip, individual mice): 0.158 µg/mL | concentration at 0.167 h ([2]; iv, Mean): 0.0593 µg/mL | concentration at 1 h ([2]; iv, Mean): 0.0069 µg/mL | concentration at 0.167 h ([2]; iv, individual mice): 0.0762 µg/mL | clearance from the blood [3]: cleared from the blood very quickly | DDX5 degradation / inhibition [4]: inhibited DDX5 in a concentration-dependent manner | conversion from lactone form to carboxylate form [5]: more rapidly and at a higher rate than other reference compounds

CC[C@@]1(O)C(=O)OCc2c1cc1n(c2=O)Cc2c-1nc1cc(F)c(C)c3c1c2[C@@H](N)CC3 [Exatecan, reference compound]
expression of anti-apoptotic proteins (survivin, cIAP2, Mcl-1, XIAP) [1]: strongly inhibit the expression of an anti-apoptotic protein

CCc1c2c(nc3ccc(O)cc13)-c1cc3c(c(=O)n1C2)COC(=O)[C@]3(O)CC [SN-38]
IC50 ([6]; several cell lines): nanomolar range

CC[C@@]1(O)C(=O)OCc2c1cc1n(c2=O)Cc2c-1nc1cc3c(c4c1c2[C@@H](NC(=O)[C@@H](O)C1CC1)CC4)OCO3 [PBX-7024]
apoptotic efficacy (cell viability) [7]: potent apoptotic efficacy

CC[C@@]1(O)C(=O)OCc2c1cc1n(c2=O)Cc2c-1nc1ccccc1c2CCNC(C)C [CKD-602]
adverse drug reactions [8]: no adverse drug reactions, except an increase in gastric juice secretion

CC[C@@]1(O)C(=O)OCc2c1cc1n(c2=O)Cc2cc3cc4c(cc3nc2-1)OCO4 [FL118, reference compound]
expression of anti-apoptotic proteins (survivin, cIAP2, Mcl-1, XIAP) [1]: strongly suppresses the expression of an anti-apoptotic protein | IC50 ([6]; majority of 140 cell lines originating from various cancer types): < 0.1 µM | DDX5 degradation / inhibition [4]: superior to other substances

CC[C@@]1(O)C(=O)OCc2c1cc1n(c2=O)Cc2c-1nc1cc3c(c4c1c2[C@@H](N)CC4)OCO3 (single isomer, unassigned) [PBX-7011]
expression of anti-apoptotic proteins (survivin, cIAP2, Mcl-1, XIAP) [1]: decreased as the concentration increased

CC[C@@]1(O)C(=O)OCc2c1cc1n(c2=O)Cc2c-1nc1cc(F)c(C)c3c1c2[C@@H](NC(=O)CO)CC3 [Dxd]
cytotoxicity / activity relative to SN-38 [6]: approximately 10 times

CC[C@@]1(O)C(=O)OCc2c1cc1n(c2=O)Cc2c-1nc1cc3c(c4c1c2[C@@H](NC(=O)CO)CC4)OCO3 [PBX-7014]
expression of anti-apoptotic proteins (survivin, cIAP2, Mcl-1, XIAP) [1]: decreased as the concentration increased
